Data on one compound can be found in patent publication US20080260637A1, “Methods of Detecting Prostate Cancer” (priority 2004, published 2008).

One experiment concerns mitochondria. The note with it: energy dependent manner; cited from earlier work.
Experiment [1] relates to prostate cancer tumor areas. The experiment in a line: SPECT imaging of excised intact prostate after intravenous Tc^99Sestamibi, compared with whole mount histopathology. It counts as in vivo, human. The note with it: 25mCi i.v. 1-2 hours prior to prostate excision; ex-vivo SPECT of intact prostate; two patients shown. How it is done: Twelve prostate cancer patients were intravenously administered with 25mCi Tc^99Sestamibi 1-2 hours prior to prostate excision. Intact prostates were excised using surgical procedures (Radical Retro pubic Prostatectomy, Radical Cystectomy or Open Prostatectomy)—illustrated in FIG. 3. The intact prostate was imaged by SPECT using a standard dual head gamma camera (millennium, GE) 6° angular step and 40 sec/step. Imaging results were reviewed using both transaxial (FIGS. 4I-N and FIGS. 5C-D) and coronal views (FIGS. 4O-T and FIG. 5E). The nuclear images were processed automatically. The designated green lines seen in FIGS. 4I-M and 4O-R and 5C and 5E were produced following an automatic search for maximal intensity voxel. Contours were determined at 90% maximal intensity. Following imaging, prostate tissue was sliced transversely from bladder neck (base) to apex. Whole mount histopathology was carried out as described in Example 1.

Structures are written as SMILES.

For `[C-]#[N+]CC(C)(C)OC.[C-]#[N+]CC(C)(C)OC.[C-]#[N+]CC(C)(C)OC.[C-]#[N+]CC(C)(C)OC.[C-]#[N+]CC(C)(C)OC.[C-]#[N+]CC(C)(C)OC.[Tc]` [Tc^99Sestamibi], the “fraction of agent taken up by mitochondria” value with mitochondria was “more than 90%”. The “identification of tumor areas by SPECT scanning” value in experiment [1] was “identified tumor areas as corroborated by whole mount histopathology”.
